Test system: PC9 xenograft tumours
Assay: PC9 xenograft antitumour efficacy and regrowth
Format: in vivo, female SCID mice
Method: PC9 xenograft tumours were established by subcutaneous implantation of 5×10^6 cells per animal, in 100 μl of cell suspension including 50% matrigel, into the dorsal left flank of female SCID mice. All mice were older than 6 weeks at the time of cell implant. Tumor growth was monitored twice weekly by bilateral calliper measurements and tumour volume calculated using elliptical formula (pi/6×width×width×length).
Mice were randomized into vehicle or treatment groups with approximate mean start size of 0.2 cm3. Randomization for animal studies was based on initial tumour volumes to ensure equal distribution across groups. Mice were dosed daily by oral gavage with vehicle or 25 mg/kg osimertinib or once weekly by intravenous with 25 mg/kg AZD2811 or with the combination of osimertinib and AZD2811. Note that all treatments were stopped on day 28. However, tumour growth was followed for approximately 200 additional days.

Structure (SMILES): C=CC(=O)Nc1cc(Nc2nccc(-c3cn(C)c4ccccc34)n2)c(OC)cc1N(C)CCN(C)C [osimertinib, N-(2-{2-dimethylaminoethyl-methylamino}-4-methoxy-5-{[4-(1-methylindol-3-yl)pyrimidin-2-yl]amino}phenyl) prop-2-enamide]
- tumour shrinkage during 4-week treatment (monotherapy, 25 mg/kg, osimertinib daily oral, AZD2811 once weekly intravenous): complete shrinkage
- time at which tumour regrowth was observed (osimertinib 25 mg/kg daily oral gavage for 28 days, then treatment stopped): around 80 days

Reference: patent US20210161897A1, “EPIDERMAL GROWTH FACTOR RECEPTOR TYROSINE KINASE INHIBITORS FOR THE TREATMENT OF CANCER” (AstraZeneca AB, priority 2019, published 2021)
